The values below come from patent US7241733B2, “Mammalian EPO mimetic CH1 deleted mimetibodies, compositions, methods and uses” (Centocor, Inc., priority 2003, dated 2007).

“Also recorded” adds a separate entry of the source.

For data set [1] the following is noted: 50% serum; cited from earlier work.
Data set [2] relates to normal mice. Nature of the data set: in vivo erythropoiesis (hematocrit) in normal mice. The note with it: equal activity units. As to the method: (§1) In vivo studies were done in normal mice to compare the half-life of EMP-NfusCG1 to that of rHuEPO and to compare their effects on erythropoiesis. […] Also seen in preliminary studies, when rHuEPO was dosed at 2000 U/kg the hematocrit of the mice was maximally elevated on day 4 and fell back to near baseline levels by day 7. […] The difference in molecular weights was also taken into consideration (rHuEPO=30,400 daltons, EMP-NfusCG1=62,200 daltons).

Data set [3] can be described thus: serum concentrations measured by ELISA in normal mice. The format is in vivo. Here is the method:
as §1
The serum concentrations of both rHuEPO and EMP-NfusCG1 were measured by ELISA. […] This is consistent with the expected 2 to 8 hour half-life of rHuEPO in rodents. (PRI Expert Report, Part IC2: Toxico-Pharmacological Documentation). In contrast, levels of EMP-NfusCG1 as high as 1.5 ug/mL were detected on day 4 and remained high through the end of the study. The linearity of the clearance profile in FIG. 6 is unusual. It may be that, since the first time point was 3 days after the last injection, the maximum concentration (Cmax) was reached before the first sample was taken and therefore the peak of the exponential curve was not observed. Another explanation is that the absorption and elimination profiles of this novel construct are such that the clearance profile appears linear.
(An ELISA detects its analyte on a solid surface through an enzyme-linked reagent.)

Data set [4] relates to cells that express the EPO receptor. As to the kind of experiment: complement lysis of cells that express the EPO receptor. It counts as cell-based. The note with it: preliminary studies. An excerpt: It has been shown that mutation of two […] (L) residues, L234 & L235, in the IgG1 lower hinge region to alanine (A) will abrogate the ability of the immunoglobulin to mediate complement dependent cytotoxicity (CDC) and antibody dependant cellular cytotoxicity (ADCC) (Hezereh et al., 2001, J. Virol., vol. 75 (24), 12161-68). […] This may be due to the low number of receptors that are found on erythroid progenitor cells. In addition the in vivo expansion of erythriod progenitors as evidenced by significant increases in hematocrit supports the possible functional irrelevance of immune effector functions. However, while no effector function associated affects have been observed, there remains an interest in introducing these mutations as a precautionary step.

In data set [5] the test system is EPO dependent UT-7/EPO cell line. As to the kind of experiment: in vitro bioactivity assay: UT-7/EPO cell viability after rHuEPO withdrawal (MTS). The format is cell-based, human. Here is the method: The activity of EMP-NfusCG1 was first tested in an in vitro bioactivity assay. For this assay, the EPO dependent UT-7/EPO cell line, derived from a patient with acute megakaryoblastic leukemia, was used (Komatsu et al., 1993, Blood, vol. 82 (2), 456-464). These cells undergo programmed cell death 48 to 72 hours after withdraw from media supplemented with rHuEPO. Cells that have been incubated in the absence of rHuEPO for 24 hours can be saved if treated with rHuEPO or an EPO agonist. EMP-NfusCG1 was added to cells starved without rHuEPO and cell viability was determined 48 hours after treatment using the tetrazolium compound MTS (CellTiter 96 Aqueous One Solution, Promega) that is metabolized by living cells to yield a product with an absorbance that can be measured. […] In addition, these same cells were stimulated with EMP-NfusCG1 and tyrosine phosphorylation patterns visualized by running cell lysate through a polyacrylamide gel.

Regarding “EMP-1: 20 amino acid peptide with no sequence homology to HuEPO, able (as a dimer) to activate the EPO receptor (GGTYSCHFGPLTWVCKPQGG)”, the ex-vivo half-life in data set [1] was 8 h.
Take “EMP-NfusCG1: EMP-1 peptide, two Gly-Gly-Gly-Ser repeats, human J region, IgG1 hinge, CH2 and CH3; SEQ ID NO:50”: in data set [2], the “duration of hematocrit response compared to rHuEPO” value is recorded as “elevated levels are maintained for a longer period; also recorded: prolonged” and the “maximal hematocrit response compared to rHuEPO” value is “significantly higher maximal hematocrit; also recorded: higher maximal response”. The “serum level detected on day 4” value in data set [3] (day 4, ELISA) was at most 1500 ng/mL. In addition, the approximate half-life in data set [3] (normal mice, calculated from serum clearance profile) is about 259 h. Further, the “complement lysis of cells that express the EPO receptor” value in data set [4] is recorded as “does not mediate complement lysis”.
By EC50 is commonly meant the concentration at which the effect is half-maximal. A lower EC50 goes with higher potency in that assay. For the substance “EMP-NfusCG4: identical to EMP-NfusCG1 except that the hinge and constant regions are of the G4 subtype; SEQ ID NO:51”, it took 0.35 nM to reach a half-maximal effect in data set [5] (average) (EC50). Moreover, in data set [5] (average of assays), the “potency relative to EMP-NfusCG1 (fold less), on average” value is listed as “about 10 fold”. In data set [5] (worked out from 10 fold vs EMP-NfusCG1 and 5 fold vs rHuEPO), the “expected difference to rHuEPO” value is on record as “about 50 fold”.
